In the NIST ThermoML archive (doi:10.1016/j.fluid.2007.07.016):

Legend:
[1] = xn = mol fraction of the nth substance listed; details: 101 kPa, Liquid; for viscosity: Capillary tube (Ostwald / Ubbelohde) method; for speed of sound: Linear variable-path acoustic interferometer
[2] = Liquid; for viscosity: Capillary tube (Ostwald / Ubbelohde) method; for speed of sound: Linear variable-path acoustic interferometer

c1ccccc1 [benzene] + C1CCOC1
[1], x2 = 0
Details	speed of sound [m/s]	viscosity [mPa·s]
288.15 K	1352.4	0.693
298.15 K	1303.5	0.6025
308.15 K	1257.4	0.5395
318.15 K	1207.2	0.467

Cc1ccccc1C [1,2-dimethylbenzene]
[2]
Details	speed of sound, 288.15 K [m/s]	speed of sound, 298.15 K [m/s]	speed of sound, 308.15 K [m/s]	speed of sound, 318.15 K [m/s]	viscosity, 288.15 K [mPa·s]	viscosity, 298.15 K [mPa·s]	viscosity, 308.15 K [mPa·s]	viscosity, 318.15 K [mPa·s]
101 kPa	1388.5	–	–	–	0.8623	–	–	–
101.33 kPa	–	1350.3	1321.4	1285.8	–	0.7576	0.669	0.5972

Cc1ccc(C)cc1 [1,4-dimethylbenzene]
[2]
Details	speed of sound, 288.15 K [m/s]	speed of sound, 298.15 K [m/s]	speed of sound, 308.15 K [m/s]	speed of sound, 318.15 K [m/s]	viscosity, 288.15 K [mPa·s]	viscosity, 298.15 K [mPa·s]	viscosity, 308.15 K [mPa·s]	viscosity, 318.15 K [mPa·s]
101 kPa	1357.5	–	–	–	0.7084	–	–	–
101.33 kPa	–	1316.4	1268	1230.3	–	0.611	0.5501	0.4912

C1CCOC1 [tetrahydrofuran] + Cc1ccc(C)cc1
[1], x1 = 1
Details	speed of sound [m/s]	viscosity [mPa·s]
288.15 K	1323.1	0.5129
298.15 K	1277.6	0.458
308.15 K	1231.5	0.4125
318.15 K	1187.2	0.3762

Cc1cccc(C)c1 [1,3-dimethylbenzene]
[2]
Details	speed of sound, 288.15 K [m/s]	speed of sound, 298.15 K [m/s]	speed of sound, 308.15 K [m/s]	speed of sound, 318.15 K [m/s]	viscosity, 288.15 K [mPa·s]	viscosity, 298.15 K [mPa·s]	viscosity, 308.15 K [mPa·s]	viscosity, 318.15 K [mPa·s]
101 kPa	1373.2	–	–	–	0.6696	–	–	–
101.33 kPa	–	1326.6	1281	1243	–	0.588	0.5229	0.4684

C1CCOC1 [tetrahydrofuran]
[2]
Details	speed of sound, 288.15 K [m/s]	speed of sound, 298.15 K [m/s]	speed of sound, 308.15 K [m/s]	speed of sound, 318.15 K [m/s]	viscosity, 288.15 K [mPa·s]	viscosity, 298.15 K [mPa·s]	viscosity, 308.15 K [mPa·s]	viscosity, 318.15 K [mPa·s]
101 kPa	1323.1	1277.6	1231.5	1187.2	0.5129	–	–	–
101.33 kPa	–	1276.6	1231.7	1186.4	–	0.458	0.4125	0.3762

C1CCOC1 [tetrahydrofuran] + Cc1ccccc1C
[1], x1 = 1
Details	speed of sound [m/s]	viscosity [mPa·s]
288.15 K	1323.1	0.5129
298.15 K	1277.6	0.458
308.15 K	1231.5	0.4125
318.15 K	1187.2	0.3762

c1ccccc1 [benzene]
[2]
Details	speed of sound, 288.15 K [m/s]	speed of sound, 298.15 K [m/s]	speed of sound, 308.15 K [m/s]	speed of sound, 318.15 K [m/s]	viscosity, 288.15 K [mPa·s]	viscosity, 298.15 K [mPa·s]	viscosity, 308.15 K [mPa·s]	viscosity, 318.15 K [mPa·s]
101 kPa	1352.4	–	–	–	0.693	–	–	–
101.33 kPa	–	1303.5	1257.4	1207.2	–	0.6025	0.5395	0.467

Cc1ccccc1 [toluene]
[2]
Details	speed of sound, 288.15 K [m/s]	speed of sound, 298.15 K [m/s]	speed of sound, 308.15 K [m/s]	speed of sound, 318.15 K [m/s]	viscosity, 288.15 K [mPa·s]	viscosity, 298.15 K [mPa·s]	viscosity, 308.15 K [mPa·s]	viscosity, 318.15 K [mPa·s]
101 kPa	1358.5	–	–	–	0.6456	–	–	–
101.33 kPa	–	1310.5	1266.2	1221	–	0.5531	0.502	0.4379

Cc1ccccc1 [toluene] + C1CCOC1
[1], x2 = 0
Details	speed of sound [m/s]	viscosity [mPa·s]
288.15 K	1358.5	0.6456
298.15 K	1310.5	0.5531
308.15 K	1266.2	0.502
318.15 K	1221	0.4379

C1CCOC1 [tetrahydrofuran] + Cc1cc(C)cc(C)c1
[1], x1 = 1
Details	speed of sound [m/s]	viscosity [mPa·s]
288.15 K	1323.1	0.5129
298.15 K	1277.6	0.458
308.15 K	1231.5	0.4125
318.15 K	1187.2	0.3762

Cc1cc(C)cc(C)c1 [1,3,5-trimethylbenzene]
[2]
Details	speed of sound, 288.15 K [m/s]	speed of sound, 298.15 K [m/s]	speed of sound, 308.15 K [m/s]	speed of sound, 318.15 K [m/s]	viscosity, 288.15 K [mPa·s]	viscosity, 298.15 K [mPa·s]	viscosity, 308.15 K [mPa·s]	viscosity, 318.15 K [mPa·s]
101 kPa	1412.3	–	–	–	0.7592	–	–	–
101.33 kPa	–	1369.8	1325.2	1279	–	0.6572	0.5792	0.5066

C1CCOC1 [tetrahydrofuran] + Cc1cccc(C)c1
[1], x1 = 1
Details	speed of sound [m/s]	viscosity [mPa·s]
288.15 K	1323.1	0.5129
298.15 K	1277.6	0.458
308.15 K	1231.5	0.4125
318.15 K	1187.2	0.3762
